The text below walks through data of patent US20230115945A1, “AMINOPYRIMIDINE COMPOUNDS” (TYRA BIOSCIENCES, INC., priority 2019, published 2023).

This assay relates to SNU-16 cells (Gastric Carcinoma, FGFR2 amplification). As to the kind of experiment: Cancer cell line cell viability assay, SNU-16. Format: cell-based. To be noted: Homo sapiens, 72 hours, Cell Titer-Glo 2.0, read-out: Cancer Cell Viability Assays SNU-16 (IC50 nM). An outline of the steps:
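RT112/84 or SNU-16 cells (10,000/well) treated 72 h at 37° C. with a 9-dose, 10-fold series from 30 μM, in triplicate. Viability by CellTiter-Glo 2.0 luminescence relative to DMSO controls; IC50 from 4-parameter sigmoidal fit.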
In general terms: Cellular ATP, detected with luciferase, serves as a proxy for viable cell number.

Turning to `C=CC(=O)Nc1ccc2c(ccn2-c2nc(Nc3ccc(N=S(C)(C)=O)cc3)ncc2Cl)c1` [Example 66, N-[1-[5-chloro-2-[4-[[dimethyl(oxo)-λ^6-sulfanylidene]amino]anilino]-pyrimidin-4-yl]indol-5-yl]prop-2-enamide], the IC50 came to 65 nM.
As to `C=CC(=O)Nc1ccc2c(ccn2-c2nc(Nc3ccc(S(C)(=N)=O)cc3)ncc2Cl)c1` (centres unmarked) [Example 70, N-[1-[5-Chloro-2-[4-(methylsulfonimidoyl)anilino]-pyrimidin-4-yl]indol-5-yl]prop-2-enamide], the half-inhibitory concentration (IC50) worked out at 12 nM.

Broadly, the IC50 is the midpoint of a concentration-inhibition curve.
